Values joined by “and” are separate entries in the source; they are usually repeats but may differ in a detail not shown here. Equal entries are not always repeated. Where two headings read alike, the source gives them in different places. One block for each compound: values may come before it.
How the values were obtained:
[1] = biological target: T1, human α1H containing calcium channels expressed in HEK293 cells (Homo sapiens, UniProt O95180); test: Whole-cell patch clamp of HEK293 cells transiently expressing the α1H subunit; format: cell-based
T1 construct: expressed in transfected cells; host or cells: HEK293 (transient, calcium phosphate; pCMVCD4 co-transfected as marker)

[2] = biological target: T2, human α1H channels expressed in Xenopus oöcytes (Homo sapiens, UniProt O95180); format: cell-based; settings: for IC50: Ba^2+ currents (15 mM Ba^2+)
T2 construct: Construction of a full-length α1H-1-encoding DNA clone; expressed in transfected cells; host or cells: Xenopus laevis oöcytes injected with in vitro transcripts

[3] = tested on: T-type current in neuroblastoma cells; settings: cited from earlier work
[4] = tested on: T-type current in hippocampal neurons; settings: 300 µM; cited from earlier work
[5] = tested on: human neuronal calcium channel α2 and β1 subunits; test: Two-electrode voltage clamp of oöcytes injected with α2 and β1 transcripts; settings: n = 11
[6] = biological target: human neuronal calcium channel α1D and α2 subunits (Homo sapiens, UniProt Q01668); test: Two-electrode voltage clamp of oöcytes injected with α1D and α2 transcripts; settings: holding potential of -90 mV
[7] = Xenopus oöcytes, concentration-inhibition curve of Ba^2+ currents

T1 sequence (O95180 whole entry): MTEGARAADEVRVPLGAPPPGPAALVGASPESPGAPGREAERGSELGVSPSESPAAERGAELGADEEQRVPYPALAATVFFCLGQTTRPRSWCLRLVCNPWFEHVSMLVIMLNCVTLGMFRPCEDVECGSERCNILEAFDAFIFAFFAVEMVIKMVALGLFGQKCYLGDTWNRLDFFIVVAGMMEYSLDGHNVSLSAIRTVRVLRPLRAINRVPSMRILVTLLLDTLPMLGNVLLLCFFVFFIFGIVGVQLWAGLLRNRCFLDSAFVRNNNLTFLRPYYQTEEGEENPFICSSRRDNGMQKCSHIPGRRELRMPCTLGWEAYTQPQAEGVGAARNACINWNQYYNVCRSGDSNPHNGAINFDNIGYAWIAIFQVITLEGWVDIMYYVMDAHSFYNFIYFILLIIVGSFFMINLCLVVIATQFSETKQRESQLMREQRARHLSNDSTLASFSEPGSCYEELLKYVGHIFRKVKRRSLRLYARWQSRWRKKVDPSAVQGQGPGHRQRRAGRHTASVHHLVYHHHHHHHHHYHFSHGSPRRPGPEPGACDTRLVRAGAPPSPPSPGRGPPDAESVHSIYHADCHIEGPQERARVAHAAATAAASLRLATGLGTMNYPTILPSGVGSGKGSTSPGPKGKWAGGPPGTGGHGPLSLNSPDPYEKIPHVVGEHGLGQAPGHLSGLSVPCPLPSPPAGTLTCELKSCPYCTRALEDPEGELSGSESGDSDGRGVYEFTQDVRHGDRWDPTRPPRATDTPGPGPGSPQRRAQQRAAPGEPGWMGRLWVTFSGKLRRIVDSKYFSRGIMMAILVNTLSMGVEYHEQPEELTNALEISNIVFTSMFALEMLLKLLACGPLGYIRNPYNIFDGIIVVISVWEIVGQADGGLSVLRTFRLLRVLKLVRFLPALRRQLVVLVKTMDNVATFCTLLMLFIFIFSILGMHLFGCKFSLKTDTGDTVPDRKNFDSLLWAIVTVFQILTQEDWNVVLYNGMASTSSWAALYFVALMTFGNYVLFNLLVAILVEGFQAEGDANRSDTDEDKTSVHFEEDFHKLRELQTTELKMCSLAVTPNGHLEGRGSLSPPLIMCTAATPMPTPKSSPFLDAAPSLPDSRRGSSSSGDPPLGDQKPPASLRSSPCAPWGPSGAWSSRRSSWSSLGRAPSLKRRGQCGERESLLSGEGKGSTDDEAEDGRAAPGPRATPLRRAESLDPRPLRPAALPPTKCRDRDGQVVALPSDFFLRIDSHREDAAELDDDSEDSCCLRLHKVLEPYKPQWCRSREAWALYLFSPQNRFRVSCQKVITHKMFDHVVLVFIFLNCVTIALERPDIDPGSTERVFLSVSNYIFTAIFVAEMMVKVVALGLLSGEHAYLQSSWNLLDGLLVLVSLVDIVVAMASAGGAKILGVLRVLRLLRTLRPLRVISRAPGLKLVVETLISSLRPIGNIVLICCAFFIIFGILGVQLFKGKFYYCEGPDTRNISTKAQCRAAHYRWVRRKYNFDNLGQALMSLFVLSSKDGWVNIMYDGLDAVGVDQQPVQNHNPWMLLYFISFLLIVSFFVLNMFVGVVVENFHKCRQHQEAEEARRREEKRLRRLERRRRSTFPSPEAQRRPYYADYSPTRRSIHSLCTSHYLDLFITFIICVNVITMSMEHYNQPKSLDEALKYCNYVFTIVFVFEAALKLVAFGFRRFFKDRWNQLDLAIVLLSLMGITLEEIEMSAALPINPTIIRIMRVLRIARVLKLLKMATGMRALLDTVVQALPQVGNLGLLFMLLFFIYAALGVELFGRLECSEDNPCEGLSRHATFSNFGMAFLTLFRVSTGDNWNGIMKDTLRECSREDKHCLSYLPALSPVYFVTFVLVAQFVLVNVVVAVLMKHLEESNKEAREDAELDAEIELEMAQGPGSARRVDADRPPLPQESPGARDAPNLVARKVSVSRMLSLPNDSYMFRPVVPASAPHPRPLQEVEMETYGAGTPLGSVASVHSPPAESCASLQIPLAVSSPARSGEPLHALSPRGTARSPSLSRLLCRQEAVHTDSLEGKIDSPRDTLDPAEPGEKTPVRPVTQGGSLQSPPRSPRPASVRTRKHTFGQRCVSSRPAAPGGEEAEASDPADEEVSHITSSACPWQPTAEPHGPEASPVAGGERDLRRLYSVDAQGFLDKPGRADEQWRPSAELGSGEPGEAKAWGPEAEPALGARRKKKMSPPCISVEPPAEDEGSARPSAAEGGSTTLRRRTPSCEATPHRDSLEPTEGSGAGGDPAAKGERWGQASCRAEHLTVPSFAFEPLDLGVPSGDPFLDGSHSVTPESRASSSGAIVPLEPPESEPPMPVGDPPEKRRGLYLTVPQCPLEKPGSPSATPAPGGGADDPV
T2 sequence (O95180 whole entry): as above
Chain of human neuronal calcium channel α1D and α2 subunits (Q01668 10-2161 limits assumed): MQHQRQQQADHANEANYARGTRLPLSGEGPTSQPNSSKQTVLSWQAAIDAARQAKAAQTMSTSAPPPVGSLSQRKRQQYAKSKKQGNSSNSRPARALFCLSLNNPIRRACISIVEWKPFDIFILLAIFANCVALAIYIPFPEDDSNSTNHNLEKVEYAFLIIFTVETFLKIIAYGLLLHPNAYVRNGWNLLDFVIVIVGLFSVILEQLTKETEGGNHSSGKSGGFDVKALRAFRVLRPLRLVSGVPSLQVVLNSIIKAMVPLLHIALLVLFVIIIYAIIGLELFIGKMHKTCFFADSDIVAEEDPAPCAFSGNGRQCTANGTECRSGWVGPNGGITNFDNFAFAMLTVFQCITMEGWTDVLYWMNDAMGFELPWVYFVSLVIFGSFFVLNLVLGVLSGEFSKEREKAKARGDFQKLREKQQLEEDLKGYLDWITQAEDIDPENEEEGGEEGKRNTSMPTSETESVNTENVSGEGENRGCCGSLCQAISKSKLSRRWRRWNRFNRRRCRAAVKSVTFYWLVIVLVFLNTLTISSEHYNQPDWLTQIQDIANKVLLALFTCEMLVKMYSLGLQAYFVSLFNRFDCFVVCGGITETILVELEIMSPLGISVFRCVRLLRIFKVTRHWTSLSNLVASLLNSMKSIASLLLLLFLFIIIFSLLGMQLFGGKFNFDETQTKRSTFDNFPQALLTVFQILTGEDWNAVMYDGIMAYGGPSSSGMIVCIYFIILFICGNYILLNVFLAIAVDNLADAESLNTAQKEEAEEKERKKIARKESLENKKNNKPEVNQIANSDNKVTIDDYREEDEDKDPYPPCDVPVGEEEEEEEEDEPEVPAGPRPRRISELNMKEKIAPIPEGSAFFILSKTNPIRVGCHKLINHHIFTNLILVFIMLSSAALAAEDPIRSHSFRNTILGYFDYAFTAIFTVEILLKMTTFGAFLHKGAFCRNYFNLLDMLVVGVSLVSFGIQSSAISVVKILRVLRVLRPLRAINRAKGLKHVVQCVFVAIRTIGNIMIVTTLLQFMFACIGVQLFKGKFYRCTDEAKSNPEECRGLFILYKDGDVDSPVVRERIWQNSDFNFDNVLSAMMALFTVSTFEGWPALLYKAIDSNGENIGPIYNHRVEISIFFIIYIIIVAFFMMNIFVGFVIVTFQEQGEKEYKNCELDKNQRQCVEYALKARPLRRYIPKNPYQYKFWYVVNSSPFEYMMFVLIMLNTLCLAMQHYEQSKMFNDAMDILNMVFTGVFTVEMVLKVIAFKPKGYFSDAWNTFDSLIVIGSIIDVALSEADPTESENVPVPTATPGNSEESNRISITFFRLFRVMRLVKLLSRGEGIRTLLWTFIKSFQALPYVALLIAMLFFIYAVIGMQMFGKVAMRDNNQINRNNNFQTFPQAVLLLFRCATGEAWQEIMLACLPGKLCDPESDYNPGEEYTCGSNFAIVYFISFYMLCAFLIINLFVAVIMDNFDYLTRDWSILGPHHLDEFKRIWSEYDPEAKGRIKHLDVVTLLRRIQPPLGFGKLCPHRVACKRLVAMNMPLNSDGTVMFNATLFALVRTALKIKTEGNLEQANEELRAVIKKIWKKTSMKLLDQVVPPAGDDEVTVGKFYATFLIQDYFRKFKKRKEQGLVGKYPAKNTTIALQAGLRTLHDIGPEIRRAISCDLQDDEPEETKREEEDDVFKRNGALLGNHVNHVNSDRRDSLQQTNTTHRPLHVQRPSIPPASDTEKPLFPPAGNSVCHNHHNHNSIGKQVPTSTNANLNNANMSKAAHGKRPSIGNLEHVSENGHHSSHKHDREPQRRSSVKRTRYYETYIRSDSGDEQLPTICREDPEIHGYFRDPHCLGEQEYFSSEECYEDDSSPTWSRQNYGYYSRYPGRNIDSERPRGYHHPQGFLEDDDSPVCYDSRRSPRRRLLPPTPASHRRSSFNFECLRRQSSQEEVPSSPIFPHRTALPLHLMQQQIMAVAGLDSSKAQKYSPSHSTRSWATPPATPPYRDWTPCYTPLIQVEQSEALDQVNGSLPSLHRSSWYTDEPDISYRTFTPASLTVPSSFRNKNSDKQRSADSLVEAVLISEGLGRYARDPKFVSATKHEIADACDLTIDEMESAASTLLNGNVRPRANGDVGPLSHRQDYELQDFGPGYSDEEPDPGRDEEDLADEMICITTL

Compound: N=C(N)NC(=O)c1nc(Cl)c(N)nc1N [Amiloride, amiloride]
effect on α1H-mediated currents (in words) [1]: inhibited
sensitivity of α1H-1-containing calcium channels lower when expressed in HEK293 cells than when expressed in Xenopus oöcytes [1]: about 10 fold
IC50 ([1]; HEK293 cells, charge carrier 15 mM Ba^2+, sigmoidal curve fitting): 167 µM
nH [2]: 0.62
IC50 [3]: ~50 µM
reduction of the T-type current [4]: 40%

Compound: [Cd+2] [Cd^2+]
IC50 [1]: 104 µM
sensitivity of α1H-1-containing calcium channels lower when expressed in HEK293 cells than when expressed in Xenopus oöcytes [1]: about 10 fold
IC50 ([2]; Xenopus oöcytes): 8.3 µM and 10.3 µM

Compound: CCC1(C)CC(=O)NC1=O (centres unmarked) [Ethosuximide, ethosuximide]
inhibition at 300 µM ([1]; HEK293, 300 µM, HEK293 cells, 15 mM Ba^2+, mean ± SD(n), read-out: % Inhibition of Control Response): 7.2 ± 1.8%
effect on α1H-mediated currents (in words) ([1]; no concentration stated): no effect

Compound: [Ni+2] [Ni^2+]
IC50 [1]: 6.6 µM
effect on α1H-mediated currents (in words) [1]: inhibited
α1H-mediated currents more sensitive to Ni^2+ than to Cd^2+ [1]: 16 fold
reversibility of antagonism ([2]; Xenopus oöcytes): largely reversible
IC50 ([2]; Xenopus oöcytes): 6.3 µM
nH [2, 7]: 0.84

Now from value to compound, other results behind:

inhibition at 1 µM ([1]; HEK293, read-out: % Inhibition of Control Response, 1 µM, HEK293 cells, 15 mM Ba^2+, mean ± SD(n)): 0.4 ± 0.8%
effect on α1H channels (in words) ([1]; concentration of 1 µM): little effect
effect on α1H-containing channels (in words) ([1]; concentration of 10 µM): marked inhibition
Compound: COC(=O)C1=C(C)NC(C)=C([N+](=O)[O-])[C@H]1c1ccccc1C(F)(F)F [(-)BayK-8644]

response of barium currents (in words) [6]: little or no response
Compound: COC(=O)C1=C(C)NC(C)=C([N+](=O)[O-])C1c1ccccc1C(F)(F)F (centres unmarked) [Bay K 8644]
sensitivity of inward barium currents (in words) [5]: insensitive

inhibition at 1 µM ([1]; 1 µM, HEK293 cells, 15 mM Ba^2+, mean ± SD(n), read-out: % Inhibition of Control Response): 51 ± 10%
effect on α1H-mediated currents (in words) ([1]; no concentration stated): inhibited
nH [2, 7]: 0.71
Compound: COCC(=O)O[C@]1(CCN(C)CCCc2nc3ccccc3[nH]2)CCc2cc(F)ccc2[C@@H]1C(C)C [Mibefradil, (IS,2S)-2-[2-[[3-(1H-benzimidazol-2-yl)propyl]methyl-amino]ethyl]-6-fluoro-1-isopropyl-1,2,3,4-tetrahydronaphthalen-2-yl methoxyacetate]

inhibition at 10 µM ([1]; HEK293, 10 µM, HEK293 cells, 15 mM Ba^2+, mean ± SD(n), read-out: % Inhibition of Control Response): 43.7 ± 4.1%
Compound: COCCOC(=O)C1=C(C)NC(C)=C(C(=O)OC(C)C)C1c1cccc([N+](=O)[O-])c1 (centres unmarked) [Nimodipine, nimodipine]

— patent publication EP1042468B1
